Laboratory results: patent US20110105397A1, “METHOD FOR TREATING HEART FAILURE WITH STRESSCOPIN-LIKE PEPTIDES” (priority 2009, published 2011)

System: dogs with advanced heart failure
Experiment: Hemodynamic, angiographic, echocardiographic profile in anaesthetized dogs with advanced heart failure, IV infusion
Type: in vivo, dog
Method: The effects of h-SCP (SEQ ID NO:1) on cardiovascular function were also assessed in anaesthetized dogs with advanced, irreversible heart failure of ischemic etiology (Sabbah et al., 1991, Am. J. Physiol., vol. 260, pp. H1379-H1384; Sabbah et al., 1994, Circulation, vol. 98, pp. 2852-2859; Chandler et al., 2002, Circ. Res., vol. 91, pp. 278-280). Progressive, advanced heart failure was produced in mongrel dogs by multiple sequential intracoronary microembolization with polystyrene latex microspheres. Dose infusions of 2.2, 4.3, and 7.3 ng/kg/min were administered intravenously over 60 minutes just following or just prior to hemodynamic, angiographic, echocardiographic, and Doppler measurements using conventional hemodynamic, angiographic, echocardiographic, and radiographic methods. The h-SCP polypeptide (SEQ ID NO:1) produced dose- (infusion-) dependent increases in LVEF and SV and decreases in left ventricular end diastolic pressure (LVEDP), left ventricular pressure during isovolumic relaxation (LV-dP/dt), systemic vascular resistance (SVR), and left ventricular end-systolic volume (LVESV) that correlated with plasma concentration. No significant change in heart rate, peak systolic aortic blood pressure, LV+dP/dt, mean pulmonary artery pressure, mean pulmonary artery wedge pressure, right atrial pressure, or myocardial oxygen consumption were recorded following any of the 1 hour intravenous infusions (Table 18 and FIGS. 12 A & B). The improvement in LV systolic and diastolic function was not associated with the development of de novo ventricular arrhythmias.
In order to determine the threshold effective dose-infusion in dogs with advanced heart failure, a further study was performed at lower dose infusions. In addition, the opportunity was taken to explore whether the increase in LVEF produced by higher dose-infusions of 4.3 ng/kg/min would remain stable over a longer infusion period, i.e. 120 minutes.
In order to understand the potential cardiovascular effects of neutralizing antibody formation to h-SCP (SEQ ID NO:1), SV30 (SEQ ID No. 118), a competitive antagonist of CRHR2, was administered to dogs (N=4) with advanced heart failure. […] These experiments with SV30 indicate that baseline cardiovascular parameters in dogs with advanced heart failure were not dependent upon endogenous hormone stimulation of CRHR2. Similar findings have been reported in healthy conscious and anaesthetized rats (Gardiner et al., J. Pharmacol. Exp. Ther., 2007, vol 321, pp. 221-226).

[1] = Table 18, IV infusion 2.2 ng/kg/min, 60 min
[2] = Table 18, IV infusion 4.3 ng/kg/min, 60 min
[3] = Table 18, IV infusion 7.3 ng/kg/min, 60 min
[4] = Table 19, IV infusion 0.22 ng/kg/min, 60 min
[5] = Table 19, IV infusion 0.43 ng/kg/min, 60 min
[6] = Table 19, IV infusion 4.3 ng/kg/min, 60 min
[7] = Table 19, IV infusion 4.3 ng/kg/min, 120 min
[8] = Table 20, SEQ ID NO: 1 4.3 ng/kg/min + AS-30

Substance: H-TKFTLSLDVPTNIMNLLFNIAKAKNLRAQAAANAHLMAQI-NH2 [SEQ ID NO: 1, TKFTLSLDVPTNIMNLLFNIAKAKNLRAQAAANAHLMAQI-NH2]
- -ESV [1]: 46 ± 1.7 mL
- CO [1]: 1.56 ± 0.11 L/min
- EDV [1]: 66 ± 2.5 mL
- EF [1]: 31 ± 0.5^+++,a,b %
- HR [1]: 76 ± 2 beats/min
- LV Efficiency [1]: 23.0 ± 3.1%
- LV+dP/dt (isovolumic contraction) [1]: 1477 ± 104 mmHg/sec
- LVCBF (total left ventricular coronary blood flow) [1]: 52 ± 5 mL/min
- LVEDP (left ventricular end diastolic pressure) [1]: 13 ± 0.9^+ mmHg
- LV−dP/dt (isovolumic relaxation) [1]: 1216 ± 44 mmHg/sec
- MPAP (mean pulmonary artery pressure) [1]: 15 ± 0.5 mmHg
- MVO2 (myocardial oxygen consumption) [1]: 191 ± 14 μmols/min
- PAWP (mean pulmonary artery wedge pressure) [1]: 9.0 ± 0.6 mmHg
- PSAP [1]: 90 ± 3 mmHg
- RAP (mean right atrial pressure) [1]: 5.7 ± 0.5 mmHg
- SV [1]: 20 ± 0.9^+ mL
- SVR (systemic vascular resistance) [1]: 4414 ± 193 dynes-sec-cm^−5
- -ESV [2]: 43 ± 1.7 mL
- CO [2]: 1.61 ± 0.13 L/min
- EDV [2]: 65 ± 2.5 mL
- EF [2]: 33 ± 0.5^+++,c %
- HR [2]: 73 ± 3 beats/min
- LV Efficiency [2]: 26.0 ± 4.4%
- LV+dP/dt (isovolumic contraction) [2]: 1400 ± 71 mmHg/sec
- LVCBF (total left ventricular coronary blood flow) [2]: 57 ± 6 mL/min
- LVEDP (left ventricular end diastolic pressure) [2]: 13 ± 0.4^+ mmHg
- LV−dP/dt (isovolumic relaxation) [2]: 1094 ± 42^+ mmHg/sec
- MPAP (mean pulmonary artery pressure) [2]: 15 ± 0.5 mmHg
- MVO2 (myocardial oxygen consumption) [2]: 177 ± 19 μmols/min
- PAWP (mean pulmonary artery wedge pressure) [2]: 10 ± 0.6 mmHg
- PSAP [2]: 87 ± 2 mmHg
- RAP (mean right atrial pressure) [2]: 5.4 ± 0.4 mmHg
- SV [2]: 22 ± 0.9^++ mL
- SVR (systemic vascular resistance) [2]: 4144 ± 243^+ dynes-sec-cm^−5
- -ESV [3]: 41 ± 1.8^+ mL
- CO [3]: 1.67 ± 0.09 L/min
- EDV [3]: 64 ± 2.4 mL
- EF [3]: 35 ± 0.9^+++ %
- HR [3]: 74 ± 2 beats/min
- LV Efficiency [3]: 23.3 ± 3.2%
- LV+dP/dt (isovolumic contraction) [3]: 1398 ± 74 mmHg/sec
- LVCBF (total left ventricular coronary blood flow) [3]: 59 ± 6 mL/min
- LVEDP (left ventricular end diastolic pressure) [3]: 12 ± 0.6^++ mmHg
- LV−dP/dt (isovolumic relaxation) [3]: 1112 ± 82^+ mmHg/sec
- MPAP (mean pulmonary artery pressure) [3]: 14 ± 0.4 mmHg
- MVO2 (myocardial oxygen consumption) [3]: 196 ± 18 μmols/min
- PAWP (mean pulmonary artery wedge pressure) [3]: 9.0 ± 0.3 mmHg
- PSAP [3]: 87 ± 2 mmHg
- RAP (mean right atrial pressure) [3]: 5.0 ± 0.4 mmHg
- SV [3]: 22 ± 0.9^++ mL
- SVR (systemic vascular resistance) [3]: 3958 ± 182^++ dynes-sec-cm^−5
- CO [4]: 1.37 ± 0.04 L/min
- HR [4]: 75 ± 1.1 beats/min
- LV+dP/dt [4]: 1842 ± 127 mmHg/sec
- LVEDP [4]: 14 ± 1.1 mmHg
- LVEDV [4]: 66 ± 1.5 mL
- LVEF [4]: 28 ± 0.6%
- LVESV [4]: 48 ± 1.2 mL
- LV−dP/dt [4]: 1448 ± 155 mmHg/sec
- MPAP [4]: 15 ± 0.7 mmHg
- PAWP [4]: 10.1 ± 0.6 mmHg
- PSAP [4]: 97 ± 3.3 mmHg
- SV [4]: 18 ± 0.5 mL
- SVR [4]: 4757 ± 287 dynes-sec-cm^−5
- CO [5]: 1.50 ± 0.04 L/min
- HR [5]: 77 ± 1.0 beats/min
- LV+dP/dt [5]: 1691 ± 96 mmHg/sec
- LVEDP [5]: 13 ± 1.4 mmHg
- LVEDV [5]: 65 ± 1.1 mL
- LVEF [5]: 30 ± 0.9%
- LVESV [5]: 45 ± 1.2 mL
- LV−dP/dt [5]: 1249 ± 120 mmHg/sec
- MPAP [5]: 15 ± 0.8 mmHg
- PAWP [5]: 9.6 ± 0.7 mmHg
- PSAP [5]: 93 ± 3.6 mmHg
- SV [5]: 19 ± 0.5 mL
- SVR [5]: 4134 ± 195 dynes-sec-cm^−5
- CO [6]: 1.68 ± 0.06^++,a,c L/min
- HR [6]: 79 ± 2.0 beats/min
- LV+dP/dt [6]: 1667 ± 88 mmHg/sec
- LVEDP [6]: 12 + 1.4 mmHg
- LVEDV [6]: 63 ± 1.3 mL
- LVEF [6]: 34 ± 1.4^+++,b,e %
- LVESV [6]: 42 ± 1.4^++,a mL
- LV−dP/dt [6]: 1166 ± 82 mmHg/sec
- MPAP [6]: 15 ± 0.8 mmHg
- PAWP [6]: 9.0 ± 0.6 mmHg
- PSAP [6]: 92 ± 4.1 mmHg
- SV [6]: 21 ± 0.8^+++,a,c mL
- SVR [6]: 3638 ± 191^+,d dynes-sec-cm^−5
- CO [7]: 1.83 ± 0.09^+++,b,e L/min
- HR [7]: 81 ± 3.6 beats/min
- LV+dP/dt [7]: 1640 ± 88 mmHg/sec
- LVEDP [7]: 12 ± 1.2 mmHg
- LVEDV [7]: 62 ± 1.3 mL
- LVEF [7]: 37 ± 1.2^+++,b,e %
- LVESV [7]: 39 ± 1.4^+++,b,e mL
- LV−dP/dt [7]: 1124 ± 92 mmHg/sec
- MPAP [7]: 15 ± 0.9 mmHg
- PAWP [7]: 9.4 ± 0.8 mmHg
- PSAP [7]: 92 ± 4.3 mmHg
- SV [7]: 23 ± 0.6^+++,a,e mL
- SVR [7]: 3372 ± 238^++,a,c dynes-sec-cm^−5
- CO [8]: 1.55 ± 0.08 L/min
- HR [8]: 82 ± 4 beats/min
- LV+dP/dt [8]: 1618 ± 79 mmHg/sec
- LVEDP [8]: 15 ± 2 mmHg
- LVEDV [8]: 68 ± 2.1 mL
- LVEF [8]: 28 ± 0.5%
- LVESV [8]: 49 ± 1.8 mL
- MPAP [8]: 16 ± 0.8 mmHg
- PSAP [8]: 90 ± 4 mmHg
- SV [8]: 19 ± 0.4 mL
- infusion dose with minimal effect on left ventricular systolic and diastolic function (dogs with advanced heart failure, 60 minutes): 0.43 ng/kg/min
